Test [1] deals with T1, Stromelysin (Homo sapiens, UniProt P08254).
T1 construct: made in house
In words: Isothermal denaturation of stromelysin monitored by SYPRO Orange fluorescence. The format is binding. Particulars: 75° C.
Protocol: Time-Dependency of the isothermal denaturation of Stromelysin monitored by SYPRO Orange Fluorescence. […] The data for the control reaction were analyzed using Equation 4, and those for the inhibited reactions with Equation 11. […] The solid lines represent the theoretical fits to the experimental data points.
The time-dependencies of the fluorescence of extrinsic dyes during isothermal denaturation were monitored as follows. The test dye was added to a stirred cuvette containing 2 milliliters (mL) of buffer that had been thermally preequilibrated at the desired temperature. A dye baseline was recorded for 45 seconds and the denaturation reaction initiated by the addition of a small aliquot of the protein stock solution. In this way, the protein reached the temperature of denaturation virtually instantaneously. In separate experiments, the protein was kept at the denaturation temperature in the absence of dye and the reporter molecule added at the end of the reaction. In the latter experiments, the fluorescence increase associated with the addition of dye was always instantaneous.
Two parameters derived from the fluorescence kinetic curves measure the rate of denaturation, namely, the slope at the inflection point, and the first-order rate constant.

Test [2] addresses T1, Stromelysin. In words: Isothermal denaturation of stromelysin monitored by UV absorbance (hyperchromicity at 280 nm). The class given is binding. Particulars: 75° C.; absorbance at 280 nm. On the procedure:
Sci., 7; 2118-2126 (1998).
UV absorbance was measured using a Perkin-Elmer Lambda 40 UV-Vis dual-beam spectrophotometer (Perkin-Elmer Corp. Norwalk, Conn.). A capped 1.0 cm pathlength quartz cuvette filled with buffer was placed in the reference beam. In the sample beam, a capped 1.0 cm path length quartz cuvette containing 1.5 mL of degassed buffer or buffer plus ligand—less the volume of protein solution to be added—was placed in a thermostated cell holder and equilibrated at the temperature of isothermal denaturation. The temperature was maintained within 0.1° C. using a Neslab Exacal EX200 circulating water bath (Neslab Instruments, Inc. Portsmouth, N.H.). A 1-5 μL aliquot of the protein stock solution was added to the cuvette containing buffer or buffer plus ligand to yield a final volume of 1.5 mL and protein concentration near 0.5 μM. The cuvette was recapped and absorbance at 280 nm was measured every 1 second for up to 30 minutes with a bandwidth of 2 nm and response of 0.5 second. For each protein, the effects of several ligand concentrations were examined ranging from about 0.5 μM to about 400 μM. Cuvettes were thoroughly cleaned as described above with nitric acid and with 10% methanol and rinsed with distilled water and ethanol between experiments.
Absorbance. […]

Test [3] has as its target T2, S. aureus thymidylate kinase (TK) (Staphylococcus aureus, UniProt P65248).
T2 construct: 6-his tag; made in house
In words: biochemical. The format is binding.

The target in a further test is T3, uridylate kinase (UK) (Staphylococcus aureus, UniProt Q2FZ22).
T3 construct: 6-his tag (implied by Ni-NTA purification); made in house
T3 sequence (Q2FZ22 1-240): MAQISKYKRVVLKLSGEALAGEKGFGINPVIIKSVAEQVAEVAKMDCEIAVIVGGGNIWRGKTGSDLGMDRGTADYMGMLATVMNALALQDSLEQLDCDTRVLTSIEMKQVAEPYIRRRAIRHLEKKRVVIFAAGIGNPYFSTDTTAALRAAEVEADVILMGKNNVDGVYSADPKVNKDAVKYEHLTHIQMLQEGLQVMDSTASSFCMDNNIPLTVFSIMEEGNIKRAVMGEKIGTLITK
In words: Uridylate kinase activity assay at 25° C. The class given is biochemical, S. aureus. Particulars: read-out: apparent Kd obtained from an activity assay.

The target of test [4] is T4, S. aureus uridylate kinase (UK) (Staphylococcus aureus, UniProt Q2FZ22).
T4 sequence (Q2FZ22 1-240): T3 sequence (Q2FZ22 1-240)
In words: Robotic HTS isothermal denaturation assay, uridylate kinase, Nano Orange.
Description: Temperature was controlled with a circulating waterbath.
Validation of Robotic HTS Assay.

Structures are written as SMILES.

T2 sequence (P65248 whole entry): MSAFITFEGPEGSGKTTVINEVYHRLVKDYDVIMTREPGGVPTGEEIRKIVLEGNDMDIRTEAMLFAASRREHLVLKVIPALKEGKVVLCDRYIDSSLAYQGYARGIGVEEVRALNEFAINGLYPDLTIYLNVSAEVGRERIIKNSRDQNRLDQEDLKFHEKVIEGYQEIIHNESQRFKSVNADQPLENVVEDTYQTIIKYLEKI
T1 sequence (P08254 100-264 limits assumed): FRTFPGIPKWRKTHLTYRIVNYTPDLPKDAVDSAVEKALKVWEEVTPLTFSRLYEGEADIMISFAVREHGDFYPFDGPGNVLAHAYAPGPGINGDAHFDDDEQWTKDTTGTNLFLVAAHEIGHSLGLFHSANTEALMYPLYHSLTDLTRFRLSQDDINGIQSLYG

Consider `CNC(=O)[C@H](Cc1ccc(O)cc1)NC(=O)Nc1n[nH]c(=S)s1` [PNU-143988], for which the “effect on denaturation of stromelysin” value on Stromelysin [1] was “inhibited in a dose-dependent manner”. At Stromelysin [2], the “effect on hyperchromicity changes” value was “dose-dependent inhibition of both the rate and magnitude”.

For `Cc1cn([C@H]2C[C@H](O)[C@@H](COP(=O)(O)O)O2)c(=O)[nH]c1=O` [TMP, Thymidine monophosphate], the Kd in test [3] (Kd calculated from the rate constants) is 7.6 ± 0.8 mM; in test [3] (Kd calculated from the slopes), 9.1 ± 1.6 mM.

In the case of `O=c1ccn([C@@H]2O[C@H](COP(=O)(O)O)[C@@H](O)[C@H]2O)c(=O)[nH]1` [UMP, uridine monophosphate], the Kd on uridylate kinase (UK) stood at 1 mM; in test [4], 5.76 ± 0.95 mM. Further, the effect on denaturation result in test [4] (41° C., 96-well microplate, robotic) is “concentration-dependent”.

The record behind these values is patent publication US6713260B2, “Methods of identifying compounds that bind to target species under isothermal denaturing conditions” (Pharmacia & Upjohn Company, priority 1999, dated 2004).
